Source: patent US20090263410A1, “USE OF TGF-B1 INHIBITOR PEPTIDES IN THE PREPARATION OF AN IMMUNE RESPONSE MODULATING AGENT” (Proyecto De Biomedicina Cima, S.L., priority 2005, published 2009)

How the values were obtained:
[1] = system: CT26 cells; experiment: Protection against growth of CT26 cells after immunization with AH1 + LVQ mixtures; type: in vivo, BALB/c mice; conditions: mice protected/total; immunization mixtures in Freund's incomplete adjuvant; 500,000 CT26 cells subcutaneous
Text: […] is a peptide which is presented by the MHC-II on the surface of the presenting cell, and a DTc is a peptide which is presented by MHC-I on the surface of the presenting cell and in tumour cells. It is known that the joint immunization of a DTc (AH1 peptide) and a DTh (LVQ peptide), both peptides coming from the gp70 protein of the tumour antigen expressed by CT26 cells, was capable of protecting against the subcutaneous growth of 500,000 CT26 tumour cells. Since TGF-β1 is important in the immune response induction process, we wanted to study the effect of peptide p144 on the induction of the response responsible for protection against the growth of CT26 cells. As is indicated in Table 1, three groups of BALB/c mice were immunized with the following mixtures of Freund's incomplete adjuvant: (i) with AH1 LVQ, (ii) with AH1+LVQ+p144 and (iii) just with Freund's incomplete adjuvant.

[2] = system: lymphocyte cultures derived from nodes; experiment: Induction of T-helper response to FIS: IL-2 and IFN-γ in lymph node lymphocyte culture supernatants; type: in vivo, BALB/c mice
Protocol: The FIS peptide is characterized as a T-helper determinant derived from sperm whale myoglobin, amino acids (106-118). This peptide has been widely used for the induction of antibodies against haptenic peptides. We wanted to analyse the effect of peptide p144 on the induction of a cytokine profile characterized among other things by the increase in IFN-γ and IL-12. In this model the following was administered by […] to groups of 3 female BALB/c mice, 4 to 8 weeks old, (Harlan, Barcelona), distributing the animals in the following treatments: • FIS: mice which received by […] a 1:1 emulsion of Freund's incomplete adjuvant and saline serum which contained 50 μg of FIS. • FIS+p144: mice which received by […] a 1:1 emulsion of Freund's incomplete adjuvant and saline serum which contained 50 μg of FIS and 50 μg of p144.
10 days after immunization, the animals were sacrificed and the popliteal, inguinal and periaortic lymph nodes were extracted. The nodes were homogenized with a syringe and they were washed three times at 4° C. with washing medium (clean RPMI 1640 medium). Next, the cells were resuspended in complete medium (RPMI 1640 with 10% FBS, 2 mM of glutamine, 100 U/ml of penicillin, 100 μg/ml of streptomycin, 5×10^−5 M of β-mercaptoethanol, 25 mM of Hepes and sodium pyruvate), at a concentration of 5.3×10^6 cells/ml adding 150 μl in each well of a flat-bottomed 96-well plate. The different peptide concentrations (6 and 10 μM) were added in triplicate and at a volume of […] per well. The cells were cultured in a stove at 37° C. and with 5% CO2 for two days. […] These supernatants were frozen at −20° C. until the quantification of the cytokine concentration.
The quantity of IFN-γ was measured using a commercial ELISA (Mouse IFN-γ Duoset ELISA Development System, Genzyme, Cambridge and OPTEIA Mouse IFN-γ Set, Pharmingen, San Diego, USA) in accordance with the manufacturer's instructions. The results were expressed as pg/ml of IFN-γ using a standard curve of known quantities of IFN-γ.
The quantity of IL-2 in each supernatant was measured by studying the proliferation of the CTL.L. cell line, whose growth is IL-2 dependent (Lai M. et al., 1987). […]
To perform the assay, the supernatants were cultured with 3000-5000 CTL.L. cells per well, diluted to a final volume of 100 μl. […] The radioactivity was quantified in a scintillation counter (Top Count, Microplate Scintillation Counter, Packard) after the addition of 25 μl of scintillation liquid (MICROSCINT®, Packard, Bioscience Company) per well. The results of the counts were expressed as mU/ml of IL-2, interpolating the counts of each well in a standard curve. […]

[3] = 50 μg FIS + 50 μg p144 in FIA versus FIS alone, in vitro restimulation with FIS
[4] = lymphocytes from mice immunized with FIS+p144

p144: peptide inhibiting TGF-β1 whose amino acid sequence corresponds to SEQ ID NO: 1 (TSLDASIIWAMMQN; Synthetic Construct from human TGB-Beta1 type III receptor.Domain730-743)
Protection level against the growth of CT26 cells [1]: negative effect on protection | IFN-γ production compared to FIS [2, 3]: reduced | IL-2 production compared to FIS [2, 3]: reduced | IFN-γ production when restimulating in vitro against p144 [2, 4]: some production of IFN-γ | IL-2 production when restimulating in vitro against p144 [2, 4]: production of IL-2
